Measured values as given in US20220296594A1, “POTENTIATORS OF ANTIMICROBIAL AND/OR ANTIVIRAL AGENTS” (MASSACHUSETTS INSTITUTE OF TECHNOLOGY, priority 2019, published 2022).
“Also recorded” adds a separate entry of the source.

Tests used:
[1] = test system: Escherichia coli strain K-12 MG1655; assay: Time-kill experiments (antibiotic lethality with biochemical supplementation); details: for ciprofloxacin (CIP) lethality / gentamicin (GENT) lethality / ampicillin (AMP) lethality: time-kill, with vs without the added substance; for ciprofloxacin (CIP) lethality: 16 ng/mL CIP; for gentamicin (GENT) lethality: 48 ng/mL GENT (minimal medium); for ampicillin (AMP) lethality: 4 μg/mL AMP; for antibiotic lethality: supplementation in wildtype cells, tested antibiotics AMP, CIP and GENT
E. coli cells [2] = assay: Oxygen consumption rate quantification (Seahorse XFe96 Extracellular Flux Analyzer); format: cell-based, Escherichia coli; details: for cellular oxygen consumption rate (OCR) following antibiotic treatment: antibiotic alone, in contrast to control conditions; for cellular OCR under antibiotic treatment: 1 mM adenine or uracil supplementation, AMP, CIP or GENT treatment
E. coli cells [3] = details: E. coli cells treated with the antibiotic; cited from earlier work
E. coli cells [4] = assay: Intracellular metabolite quantification by LC-MS/MS after adenine or uracil supplementation; format: cell-based, Escherichia coli
Protocol: Intracellular metabolites were quantified on an AB SCIEX Qtrap® 5500 mass spectrometer (AB SCIEX; Framingham, Mass.), as previously described (McCloskey et al., 2018), and processed using in house scripts. […] Samples were collected 1 hr after supplementation, and aliquots with biomass equivalents to 10 mL of cell culture at OD600=0.1 were subjected to metabolite extraction using a 40:40:20 mixture of acetonitrile, methanol and LC-MS grade water. Uniformly labeled ^13C-standards were generated by growing E. coli in uniformly labeled Glucose M9 minimal media in aerated shake flasks, as previously described (McCloskey et al., 2014). Calibration mixes of standards were split across several mixes, aliquoted, and lyophilized to dryness. All samples and calibrators were equally spiked with the same internal standards. Samples were quantified using […] mass spectrometry. Calibration curves were run before and after all biological and analytical replicates. Consistency of quantification between calibration curves was checked by running a Quality Control sample composed of all biological replicates. Values reported are derived from the average of the biological triplicates, analyzed in duplicate (n=6).
Metabolite concentrations were estimated from LC-MS/MS peak heights using previously generated calibration curves. […] Metabolites in blanks with a concentration greater than 80% of that found in the biological samples were similarly excluded. Missing values were imputed by bootstrapping using the R package Amelia II (v. 1.7.4, 1,000 imputations) (Honaker et al., 2011). Remaining missing values were approximated as ½ the lower limit of quantification for the metabolite normalized to the biomass of the sample. Intracellular metabolite concentrations were calculated based on an estimated cell density of 7·10^7 CFU/mL at OD600=0.1 (FIGS. 5A-5C) and an estimated cell volume of 1.3 fL for non-stressed exponential phase E. coli cells (Milo and Phillips, 2016).

E. coli = assay: Unstressed growth in MOPS minimal medium; details: exogenous supplementation, no antibiotic
[5] = 1 mM supplementation, 1 hr, MOPS minimal medium

SMILES	ciprofloxacin (CIP) lethality [1]	gentamicin (GENT) lethality [1]	ampicillin (AMP) lethality [1]	cellular oxygen consumption rate (OCR) following antibiotic treatment (E. coli cells [2])	antibiotic lethality [1]	further results
Sc1ncnc2nc[nH]c12 [6-mercaptopurine]	decreased	increased	decreased			
CC1(C)S[C@@H]2[C@H](NC(=O)[C@H](N)c3ccccc3)C(=O)N2[C@H]1C(=O)O [AMP, ampicillin]				increased		intracellular purine nucleic acid bases (adenine, guanine) (E. coli cells [3]): depleted; intracellular pyrimidine nucleic acid bases (cytosine, thymine, uracil) (E. coli cells [3]): accumulate
O=C(O)c1cn(C2CC2)c2cc(N3CCNCC3)c(F)cc2c1=O [CIP, ciprofloxacin]				increased		
CNC(C)C1CCC(N)C(OC2C(N)CC(N)C(OC3OCC(C)(O)C(NC)C3O)C2O)O1 (stereo not drawn) [GENT, gentamicin]				increased		
Nc1ncnc2nc[nH]c12 [adenine]	decreases	decreases	decreases		decreased	cellular OCR under antibiotic treatment (E. coli cells [2]): significantly repressed; NADH/NAD+ ratio (E. coli cells [4]; [5]): unchanged; NADPH/NADP+ ratio (E. coli cells [4]; [5]): modest decrease; adenylate energy charge (E. coli cells [4]; [5]): modest decrease; intracellular fumarate (E. coli cells [4]; [5]): decreased; intracellular succinate (E. coli cells [4]; [5]): increased; intracellular adenine nucleotides (E. coli cells [4]; exogenous adenine addition): accumulate; unstressed growth (E. coli): does not significantly alter
Nc1cc[nH]c(=O)n1 [cytosine]					potentiated; also recorded: potentiating effect	
CCn1cc(C(=O)O)c(=O)c2cc(F)c(N3CCNCC3)cc21 [norfloxacin]						intracellular purine nucleic acid bases (adenine, guanine) (E. coli cells [3]): depleted; intracellular pyrimidine nucleic acid bases (cytosine, thymine, uracil) (E. coli cells [3]): accumulate
COc1cc(Cc2cnc(N)nc2N)cc(OC)c1OC [trimethoprim]	decreases	increases	decreases			
O=c1cc[nH]c(=O)[nH]1 [uracil]	increases	increases	increases		potentiated; also recorded: potentiating effect	cellular OCR under antibiotic treatment (E. coli cells [2]): enhanced; unstressed growth (E. coli): does not significantly alter
O=c1ccn([C@@H]2O[C@H](CO)[C@@H](O)[C@H]2O)c(=O)[nH]1 [uridine]					potentiating effect	
